Data as given in US4011313A, “Medicament preparations” (Syntex (U.S.A.) Inc., priority 1975, dated 1977).
Counter-ions that a name gives are not always drawn. Like-named read-outs stand apart in the source and are kept apart here. Each block holds one molecule with its values, some of them ahead of it.

Tests used:
[1] = Storage stability of tetracyclines in cream-like and comparison formulations; conditions: for oxytetracycline hydrochloride percent of initial activity: Example XXXIX cream; for tetracycline activity remaining: after two weeks, 20160 min; for tetracycline activity remaining / stability of comparison formulation: room temperature
[2] = Oleic acid diethanolamide activity after storage at 80° C, with extrapolated shelf time; type: physicochemical
[3] = tested on: lipase; experiment: In vitro lipase inhibition; type: biochemical
[4] = PGE2 activity after storage in polyethylene glycol comparison formulations; type: physicochemical
Experimental: By comparison, 1 mg. PGE2 and 1 ml. polyethylene glycol 400 assays 54% PGE2 activity after storage for two months at 45° C.; 0.2 mg. PGE2 in 2.7598 g. polyethylene glycol 4,000 assays 70% PGE2 activity after storage for 6 months at room temperature and 72% PGE2 activity after storage for 3 months at 45° C.; a suppository of 0.2 mg. PGE2 in 2.7298 g. base comprising 2% polyethylene glycol 4,000 and 98% polyethylene glycol 1,000 assays 62% PGE2 activity after storage for six months at room temperature; a formulation of PGE2 in polyethylene glycol 400 assays 73% PGE2 activity after 4 months at room temperature; and a formulation of PGE2 in polyethylene glycol 4000 assays 82% PGE2 activity after 5 months at room temperature.

[5] = literature: Brummer 1971; Karim et al. 1968; cited from earlier work
[6] = PGE2 activity after storage at 80° C in polyethylene glycol-550-dimethyl ether; type: physicochemical; conditions: 1 mg PGE2, 0.01% edetic acid, 0.01% BHA, 0.01% BHT per ml polyethylene glycol-550-dimethyl ether, nitrogen, 18 days
Experimental: The following formulations are prepared having 1 mg. PGE2 per ml. of polyethylene glycol-550-dimethyl ether, and the additional material(s) as set forth below.
A formulation is prepared having 1 mg. PGE2 , 0.01% edetic acid, 0.01% BHA and 0.01% BHT per ml. polyethylene glycol-550-dimethyl ether, and sealed in an ampule under nitrogen atmosphere.

[7] = PGE2 activity after storage at 60° C in glyme or triethylene glycol-dimethyl ether; type: physicochemical; conditions: nitrogen
Experimental: A formulation is prepared having 1 mg. PGE2 per ml. 1,2-dimethoxyethane. After 12 days storage at 60° C. under a nitrogen atmosphere, the PGE2 assays 100% of its initial activity.
A formulation is prepared having 1 mg. PGE2 per ml. of triethylene glycol-dimethyl ether. After 5 days storage at 60° C. under a nitrogen atmosphere, the PGE2 assays 100% of its initial activity.

[8] = General chemical stability of prostaglandins; type: physicochemical; conditions: with dimethyl ether of polyethylene glycol 550, extended period above room temperature
Text: See, for example, Brummer J. Pharm. Pharmac. 23, 804 (1971), and Karim et al., European J. Pharmacol. 4, 416 (1968). It would, therefore, be desirable to have a prostaglandin preparation wherein the prostaglandin material is stabilized by the vehicle material.
The above and still further objects, features, and advantages of the present invention are achieved, in accordance therewith, by admixing a pharmaceutically active quantity of an active medicament material with a dialkylated mono- or poly-alkylene glycol optionally including an antioxidant for the glycol vehicle.

[9] = Nystatin activity after storage at 80° C; type: physicochemical; conditions: for nystatin percent of initial activity: 0.5 mg/ml in polyethylene glycol-350-dimethyl ether, 0.05% BHA, under air
Text: Thus, the polyethylene glycol-350-dimethyl ether has a significant stabilizing effect on nystatin when compared to polyethylene glycol 400.

[10] = Palmitic acid diethanolamide stability at 80° C; type: physicochemical; conditions: under air, 14 days
Text: The formulation remains undecomposed after 14 days. The same result is attained with a formulation which additionally contains 0.05% BHA.

[11] = in several polyethylene glycols, cited from earlier work
[12] = Decomposition of aspirin vs. time at 80° C in vehicle, with extrapolated shelf-life; type: physicochemical; conditions: for shelf-life at 25° C: extrapolated from 80° C
Experimental: A formulation is prepared having 0.5 g. aspirin and 0.05% BHA per 1.0 g. polyethylene glycol-750-dimethyl ether, and stored at 80° C. Decomposition of the aspirin is measured vs. time. The time for 10% decomposition is 27 hours. This reflects approximately a 30 month shelf-life at 25° C. This can be compared to a published report[Jun et al., J. Pharm. Sec.
The time for 10% decomposition (t90) is 24 hours. This reflects approximately a 30 month shelf-life at 25° C. Thus, this Example describes the preparation of a liquid aspirin formulation which is stable for long periods of time at or about room temperature.
Sciences, 53, 815-818 (July, 1964).

[13] = Chloramphenicol activity after storage at 80° C, with extrapolated shelf-life; conditions: for chloramphenicol percent of initial activity: 80° C
[14] = In vitro human skin penetration of labeled (H^3) tetracycline hydrochloride; conditions: cream-like preparation vs 0.5% in 75% propylene glycol and 0.05% in pH 6.6 buffer (both saturated solutions)
[15] = polyethylene glycol 400 in place of dialkylated vehicle, 2 days
[16] = 0.05% tetracycline hydrochloride in pH 6.6 buffer
[17] = 0.5% tetracycline hydrochloride in 75% propylene glycol

Compound: CN(C)C1C(=O)C(C(N)=O)=C(O)C2(O)C(=O)C3=C(O)c4c(O)cccc4C(C)(O)C3C(O)C12 (stereo not drawn) [oxytetracycline hydrochloride]
oxytetracycline hydrochloride percent of initial activity ([1]; 2 months, 45° C, 86400 min): 92%
oxytetracycline hydrochloride percent of initial activity ([1]; 3 months, 37° C, 129600 min): 92%
oxytetracycline hydrochloride percent of initial activity ([1]; 4 months, 45° C, 172800 min): 75%

Compound: CCCCCCCC/C=C\CCCCCCCC(=O)N(CCO)CCO [oleic acid diethanolamide]
oleamide percent of initial activity ([2]; 2 mg/ml in 1,2-dimethoxyethane with 0.025% BHT and 0.025% BHA, 5 weeks, 80° C, 50400 min): 96%
shelf time at 25° C ([2]; approximately, 1,2-dimethoxyethane with BHT and BHA, extrapolated from 80° C): 3-4 years
lipase inhibition [3]: inhibits lipase

PGE2 activity after storage ([4]; 0.2 mg PGE2 in 2.7598 g polyethylene glycol 4,000, 3 months, 45° C, 129600 min): 72%
PGE2 activity after storage ([4]; 0.2 mg PGE2 in 2.7598 g polyethylene glycol 4,000, 6 months, room temperature, 259200 min): 70%
PGE2 activity after storage ([4]; 1 mg PGE2 and 1 ml polyethylene glycol 400, two months, 45° C, 86400 min): 54%
PGE2 activity after storage ([4]; in polyethylene glycol 400, 4 months, room temperature, 172800 min): 73%
PGE2 activity after storage ([4]; in polyethylene glycol 4000, 5 months, room temperature, 216000 min): 82%
PGE2 activity after storage ([4]; suppository, 0.2 mg PGE2 in 2.7298 g base (2% polyethylene glycol 4,000, 98% polyethylene glycol 1,000), six months, room temperature, 259200 min): 62%
PGE2 percent of initial activity [6]: 100%
PGE2 percent of initial activity ([7]; 1 mg/ml in 1,2-dimethoxyethane, 12 days): 100%
PGE2 percent of initial activity ([7]; 1 mg/ml in triethylene glycol-dimethyl ether, 5 days): 100%
chemical stability after storage [8]: high degree of chemical stability
Compound: CCCCC[C@H](O)/C=C/[C@H]1[C@H](O)CC(=O)[C@@H]1C/C=C\CCCC(=O)O [PGE2, 11α,15α-dihydroxy-9-keto-5,13-prostadienoic acid]
chemical stability [5]: relatively unstable

Compound: C[C@@H]1[C@H](O)[C@@H](C)/C=C/C=C/CC/C=C/C=C/C=C/C=C/C(O[C@H]2O[C@H](C)[C@@H](O)[C@H](N)[C@@H]2O)CC2O[C@](O)(CC(O)C(O)CCC(O)CC(O)CC(O)CC(=O)O[C@H]1C)CC(O)C2C(=O)O (stereo partly drawn) [nystatin]
nystatin percent of initial activity ([9]; 2 days): 56%
nystatin percent of initial activity ([9]; 5 days): less than 40%
decomposition (loss of activity) [9, 15]: total decomposition

decomposition after storage ([10]; 5 mg/ml in polyethylene glycol-350-dimethyl ether with 0.05% BHA): undecomposed
decomposition after storage ([10]; 5 mg/ml in polyethylene glycol-350-dimethyl ether): undecomposed
Compound: CCCCCCCCCCCCCCCC(=O)N(CCO)CCO [palmitic acid diethanolamide]

Compound: CC(=O)Oc1ccccc1C(=O)O [aspirin, acetylsalicylic acid]
time for 10% decomposition ([11]; 80° C, Jun et al. 1972): 2 h
shelf-life at 25° C ([11]; from published report Jun et al. 1972): 3.5 months
time for 10% decomposition (t90) ([12]; 100 mg aspirin per ml polyethylene glycol-350-dimethyl ether, under air, 80° C): 24 h
time for 10% decomposition ([12]; 0.5 g aspirin and 0.05% BHA per 1.0 g polyethylene glycol-750-dimethyl ether, 80° C): 27 h
shelf-life at 25° C ([12]; polyethylene glycol-350-dimethyl ether, under air): ~30 month
shelf-life at 25° C ([12]; polyethylene glycol-750-dimethyl ether with 0.05% BHA): ~30 month

Compound: O=C(N[C@H](CO)[C@H](O)c1ccc([N+](=O)[O-])cc1)C(Cl)Cl [chloramphenicol]
chloramphenicol percent of initial activity ([13]; 0.5 mg/ml in polyethylene glycol-350-dimethyl ether, 0.05% BHA, under air, 2 days): 95%
chloramphenicol percent of initial activity ([13]; 0.5 mg/ml in polyethylene glycol-350-dimethyl ether, 0.05% BHA, under air, 5 days): 66%
chloramphenicol percent of initial activity [13, 15]: 50%
chloramphenicol percent of initial activity ([13]; polyethylene glycol 400 in place of dialkylated vehicle, 5 days): less than 20%
shelf-life at room temperature ([13]; polyethylene glycol-350-dimethyl ether, 0.05% BHA, extrapolated from 80° C): at least 1 year

Compound: CN(C)C1C(=O)C(C(N)=O)=C(O)C2(O)C(=O)C3=C(O)c4c(O)cccc4C(C)(O)C3CC12 (stereo not drawn) [tetracycline hydrochloride]
skin penetration [14]: equivalent skin penetration
tetracycline activity remaining [1, 16]: less than 50%
stability of comparison formulation [1, 16]: highly unstable
tetracycline activity remaining [1, 17]: less than 50%
stability of comparison formulation [1, 17]: highly unstable
tetracycline hydrochloride percent of initial activity ([1]; Example XXXVIII cream: 1.0% drug, 79.0% polyethylene glycol-350-dimethyl ether, 20.0% polyethylene glycol-6000-dimethyl ether, 0.05% BHA, 4 months, 45° C, 175200 min): 98%
